{"source": "paper PMC9532399", "about": "“The lysosomal transporter TAPL has a dual role as peptide translocator and phosphatidylserine floppase” (Nature Communications, 2022)", "target": "T1, TAPL Y405A mutant (Mus musculus, UniProt Q9JJ59, Y405A)", "T1 construct": "thrombin cleavage site (C); eGFP (C); 10XHis (C); made in house; host or cells: Trichoplusia ni High Five (Hi5) insect cells, baculovirus (pVL1393)", "T1 sequence (Q9JJ59 143-762 Y405A)": "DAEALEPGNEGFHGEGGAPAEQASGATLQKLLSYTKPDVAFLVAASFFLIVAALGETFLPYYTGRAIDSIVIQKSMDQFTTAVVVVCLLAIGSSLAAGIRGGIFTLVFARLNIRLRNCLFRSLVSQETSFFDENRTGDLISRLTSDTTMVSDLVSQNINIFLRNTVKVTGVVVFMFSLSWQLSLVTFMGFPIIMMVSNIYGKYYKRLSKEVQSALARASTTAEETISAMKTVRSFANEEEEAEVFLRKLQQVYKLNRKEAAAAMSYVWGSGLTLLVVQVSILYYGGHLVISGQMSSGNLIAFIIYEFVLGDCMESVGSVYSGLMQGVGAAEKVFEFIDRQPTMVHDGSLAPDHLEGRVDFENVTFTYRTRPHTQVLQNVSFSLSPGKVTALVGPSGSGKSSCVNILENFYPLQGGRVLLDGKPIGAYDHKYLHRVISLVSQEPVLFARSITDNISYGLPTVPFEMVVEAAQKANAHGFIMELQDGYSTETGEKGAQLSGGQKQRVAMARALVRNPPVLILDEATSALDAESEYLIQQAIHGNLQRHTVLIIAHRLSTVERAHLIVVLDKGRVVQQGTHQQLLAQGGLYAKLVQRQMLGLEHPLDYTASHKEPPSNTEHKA", "experiment": "Dithionite-based flip-flop assay, Y405A proteoliposomes", "assay_type": "biochemical", "experimental": "All lipids used in reconstitution were purchased from Avanti Polar Lipids, Inc. (purity > 99%). The in vitro flip–flop assay was performed using NBD* dye-labeled proteoliposomes as described previously. Briefly, E. coli polar lipids and egg PC were mixed in a 1:1 molar ratio, and 0.5% (mol/mol) NBD*-lipid was added. The lipid mixture was then dried under nitrogen gas. The NBD*-lipids used were 18:1-06:0 NBD*-PS (1-oleoyl-2-{6-[(7-nitro-2-1,3-benzoxadiazol-4-yl)amino]hexanoyl}-sn-glycero-3-phosphoserine), 18:1-06:0 NBD*-PC (1-oleoyl-2-{6-[(7-nitro-2-1,3-benzoxadiazol-4-yl)amino]hexanoyl}-sn-glycero-3-phosphocholine), 18:1-06:0 NBD*-PG (1-oleoyl-2-{6-[(7-nitro-2-1,3-benzoxadiazol-4-yl)amino]hexanoyl}-sn-glycero-3-[phospho-rac-(1-glycerol)]), 18:1-06:0 NBD*-PE (1-oleoyl-2-{6-[(7-nitro-2-1,3-benzoxadiazol-4-yl)amino]hexanoyl}-sn-glycero-3-phosphoethanolamine), and 25-NBD*-Cholesterol (25-[N-[(7-nitro-2-1,3-benzoxadiazol-4-yl)methyl]amino]−27-norcholesterol). Thin lipid films were solubilized in 20 mM HEPES–NaOH pH 8.0, 200 mM NaCl and 5% (v/v) glycerol, incubated at RT for 30 min and subjected to 5 freeze–thaw cycles. After extrusion with a Mini-Extruder at 65 °C, final lipid concentrations were determined by phosphorus assays. Briefly, 10 μL of extruded lipid was added to 10 μL of 2% (w/v) ammonium molybdate and 300 μL of concentrated perchloric acid. […] Lipid concentrations were calculated from the absorbance at 820 nm using a standard curve prepared with NaH2PO4 solution. […]\nTo measure the flip–flop activity, 10 μL of 2 mM NBD*-labeled proteoliposomes were added to 100 μL of reaction buffer (20 mM HEPES–NaOH pH 8.0, 200 mM NaCl, 5 mM ATP and 5% (v/v) glycerol) in the presence of 2 mM MgCl2 (or NaCl), and incubated at 37 °C for 1 h. The mixture was transferred to a 96-well plate and time-dependent fluorescence (λex/λem = 460/538 nm) was recorded every 30 s for 26 min using a fluorescence spectrophotometer (Gemini XPS). After the baseline fluorescence had stabilized, 10 mM sodium dithionite was added to quench the fluorescence of NBD*-lipid present in the outer leaflets of the liposomes. The initial rapid drop and subsequent slow decline in fluorescence intensity were monitored. […] The net percentage of NBD*-lipid translocated across the lipid bilayer was calculated from the following equation[72]: the percentage of protected NBD*-lipid in the inner leaflet = [(FD−F0)/(FT−F0)]×100, and that of accessible NBD*-lipid in the outer leaflet = [(FT−FD)/(FT−F0)]×100, where FT is the total fluorescence of the sample before the addition of dithionite, FD is the fluorescence of the sample after quenching with dithionite, and F0 is any residual fluorescence of the sample after solubilization with Triton X-100. […]", "data": [{"molecule": "CCCCCCCC/C=C\\CCCCCCCC(=O)OC[C@H](COP(=O)(O)OC[C@H](N)C(=O)O)OC(=O)CCCCCNc1ccc([N+](=O)[O-])c2nonc12", "note": "[NBD*-PS, 1-oleoyl-2-{6-[(7-nitro-2-1,3-benzoxadiazol-4-yl)amino]hexanoyl}-sn-glycero-3-phosphoserine]", "values": [{"measurement": "NBD*-PS fluorescence intensity (net percentage transported outer to inner leaflet)", "setting": "Mg2+/ATP minus Na+/ATP, mean n=3", "result": 1.556, "unit": "%"}, {"measurement": "NBD*-PS fluorescence intensity (net percentage transported)", "setting": "replicate I", "result": 1.636, "unit": "%"}, {"measurement": "NBD*-PS fluorescence intensity (net percentage transported)", "setting": "replicate II", "result": 1.459, "unit": "%"}, {"measurement": "NBD*-PS fluorescence intensity (net percentage transported)", "setting": "replicate III", "result": 1.571, "unit": "%"}]}]}
